Consider two compounds from US10196357B2, “Biaryl compositions and methods for modulating a kinase cascade” (Athenex, Inc., priority 2007, dated 2019).

pIC50: −log10 of the molar value. Several values for one entry are separate records, joined by “and”; a condition that tells them apart may be missing. Equal entries are not always repeated. Where two headings read alike, the source gives them in different places. A value given as a limit tells only on which side of the number the result lay.

The subject of one data set is HT29 cell line. Description: BrdU cell growth inhibition, HT29. The format is cell-based, human. Particulars: for GI50: read-out: GI50. Summed up: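 HT29 colon carcinoma cells treated with compounds diluted from 20 mM DMSO stocks into DMEM/10% FBS. Proliferation read as colorimetric BrdU incorporation ELISA; GI calculated relative to untreated cells at time 0 and control cells at day n, with GI50 extrapolated. Net cell loss below time-0 level scored as cytotoxicity.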

For a further data set, the system named is c-Src 3T3 cells. Briefly: BrdU cell growth inhibition, c-Src 3T3. Format: cell-based, mouse. Particulars: for GI50: c-Src 3T3 (c-Src527F/NIH3T3) cells, read-out: GI50. Summed up:
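c-Src 3T3 cells on poly-D-lysine plates in DMEM with 2% FBS, L-glutamine, pyruvate and 10 mM HEPES. Compounds came from 20 mM DMSO stocks diluted in DMEM/10% FBS. Proliferation was read by colorimetric BrdU-incorporation ELISA, and GI50 was extrapolated from growth relative to time-zero and untreated controls.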

Data set [1] can be described thus: brain exposure after oral administration. The format is in vivo, male CD-1 mice. The settings on record: for AUClast: Brain; for KX2-361 Brain Concentrations, Group A / KX2-361 Brain Concentrations, Group B / KX2-361 Brain Concentrations, Group C: Male CD-1 mice, single PO dose 10 mg/kg (Group 3). The protocol:
Plasma concentrations were measured in mice after oral administration. All doses were formulated in purified water. Four groups of male CD-1 mice were dosed after an overnight fast and fed 4 hours post-dose. Dosing was as follows:
Protein was precipitated with 0.25 mL acetonitrile for plasma, 0.25 mL for brain. After centrifugation, supernatant was directly injected into an LC/MS system. The limit of quantitation was 1 ng/mL using a 50 μL aliquot for plasma and a 50 μL, aliquot for brain. The standard curve was 1 to 1,000 ng/mL for both plasma and brain. HPLC conditions were as follows:
HPLC System: Shimadzu SCL-10 System
• Analytical Column: Aquasil C18 5 μm 100×2 mm column. • Column Temperature: Ambient temperature • Autosampler Temperature: Ambient temperature • Mobile Phase A) 10 mM Ammonium formate in water (pH 4). • B) Acetonitrile. • Flow Rate: 0.6 mL/min • Injection Volume: 2 μL • Gradient:
• Mass Spectrometry Conditions were as follows: • Instrument: ABI Sciex API 4000 • Mode: ESI+ • Experiment: MRM (multiple reaction monitoring) • Transitions: KX2-391: m/z 432.4→114.2 (Rt=3.11 minute) • KX2-361: m/z 406.1→253.2 (Rt=3.33 minute)

Another data set has as its system GL261 glioma cells. Briefly: intracranial GL261 glioma survival study. Format: in vivo, C57BL/6 mice. The settings on record: for Median survival / survival Range: C57BL/6 mice, intracranial GL261. How it is done:
A brain tumor mouse xenograft study was conducted comparing KX2-361 and KX2-391 (KXO1) to Temodar®. The studies were conducted in C57BL/6 mice. GL261 glioma cells (1×10^5 in 5 μl DMEM) were implanted intracranial coordinates: bregma, lateral 2.0 mm, anterior 1.2 mm, 3.0 mm depth dura. Treatment was initiated 3 days post implantation. The groups were as follows (all doses in 100 μl H2O):
The median survival range and the log-rank (Mantel-Cox) statistical test results comparing the survival distributions of the samples.

For data set [2], the system named is lung cancer cell line A549. Briefly: tumor growth inhibition, A549. The format is cell-based, Human. The settings on record: A549 (Lung) cells. The source says: (§1) Growth Inhibition. […] T1 values≤T0 values were designated as T, cytotoxicity.
The test system of another data set is MDA231 (Breast). Description: growth inhibition (BrdU), MDA231. Format: cell-based, Human. The settings on record: MDA231 (Breast) cells.
Excerpt: as §1

The next data set addresses isolated Src (Homo sapiens, UniProt P12931). Description: titration against isolated Src. The settings on record: titration data. Format: biochemical.
Data set [3] has as its system PDGF receptor tyrosine kinase Y572/574. Briefly: PDGF receptor autophosphorylation in cells. The settings on record: c-Src527F/NIH-3T3 cells. The format is cell-based. The protocol:
HT29 (colon cancer) and c-Src527F/NIH-3T3 (Src transformed) cell lines were treated with KX2-391 or with AstraZeneca's ATP competitive Src inhibitor AZ28. AZ28 serves as a positive comparator to show what a validated Src inhibitor should do in these assays. After treatment with compound, cells were lysed, subjected to PAGE and probed with a battery of antibodies. […] In addition, off-target protein phosphorylation was also investigated. Further, induction of apoptosis was evaluated via Caspase 3 cleavage. Multiple doses of each compound were tested because the trends in response to increasing drug concentration are the most reliable indicator of activity.
The same range of multiples of the GI50 for AZ28 in these two cell lines was run as a comparison.
This is thought not to be a direct Src substrate in cells.

Sequence of isolated Src (P12931 whole entry): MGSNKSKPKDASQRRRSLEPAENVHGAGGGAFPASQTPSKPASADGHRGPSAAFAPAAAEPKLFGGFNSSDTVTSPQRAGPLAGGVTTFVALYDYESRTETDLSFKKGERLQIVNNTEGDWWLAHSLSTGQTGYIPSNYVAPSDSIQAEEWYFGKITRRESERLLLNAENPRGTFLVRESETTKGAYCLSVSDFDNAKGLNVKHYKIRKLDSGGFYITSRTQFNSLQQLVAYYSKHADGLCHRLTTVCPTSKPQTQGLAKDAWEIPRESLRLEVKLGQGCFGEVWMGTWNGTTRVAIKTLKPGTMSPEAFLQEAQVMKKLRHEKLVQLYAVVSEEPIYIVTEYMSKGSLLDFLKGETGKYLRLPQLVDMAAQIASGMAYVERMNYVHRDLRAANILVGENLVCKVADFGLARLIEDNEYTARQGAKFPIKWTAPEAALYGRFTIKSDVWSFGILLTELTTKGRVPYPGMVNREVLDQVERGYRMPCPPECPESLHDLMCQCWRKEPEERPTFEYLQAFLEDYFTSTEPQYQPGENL

What is called GI50 is the concentration that inhibits growth by half. Take `O=C(Cc1ccc(-c2ccc(N3CCOCC3)cc2)cn1)NCc1cccc(F)c1` [KX2-361]: the GI50 was found to be 10 nM in the data set on HT29 cell line (Homo sapiens, HT-29, HT29 (Colon) cells) and 11 nM in the data set on c-Src 3T3 cells (Mus musculus). In the data set with HT29 cell line (Homo sapiens, HT-29, 50 nM, read-out: HT-29 Growth, % of Control Mean, n = 3), the activity at 0.05 µM was less than 0%. Further, in the data set with HT29 cell line (Homo sapiens, HT-29, 500 nM, read-out: HT-29 Growth, % of Control Mean, n = 3), the activity at 0.5 µM was less than 0%. Moreover, the activity at 5 µM in the data set with HT29 cell line (Homo sapiens, HT-29, 5 uM, read-out: HT-29 Growth, % of Control Mean, n = 3) was less than 0%. For the same compound, the activity at 0.1 µM with c-Src 3T3 cells (Mus musculus, NIH3T3, 100 nM, read-out: c-Src 3T3 Growth, % of Control Mean, n = 3) was less than 0%. For the same compound, the activity at 1 µM with c-Src 3T3 cells (Mus musculus, NIH3T3, 1.0 uM, read-out: c-Src 3T3 Growth, % of Control Mean, n = 3) was less than 0%. The activity at 10 µM in the data set with c-Src 3T3 cells (Mus musculus, NIH3T3, 10 uM, read-out: c-Src 3T3 Growth, % of Control Mean, n = 3) was less than 0%. In addition, the AUClast came to 656 ng·h/g in data set [1] (single oral dose 10 mg/kg) and 3338 ng·h/g in data set [1] (single oral dose 50 mg/kg). For the same compound, the “KX2-361 Brain Concentrations, Group A” value in data set [1] (0 hr) is given as “BLQ (BLQ: Below Limit of Quantitation (1 ng/mL))”; in data set [1] (0.5 hr), 43.98 ng/g; in data set [1] (2 hr), 109.78 ng/g; in data set [1] (5 hr), “BLQ (BLQ: Below Limit of Quantitation (1 ng/mL))”. Also, the “KX2-361 Brain Concentrations, Group B” value in data set [1] (0 hr) is “BLQ (BLQ: Below Limit of Quantitation (1 ng/mL))”; in data set [1] (0.5 hr), 138.55 ng/g; in data set [1] (1 hr) it was 334.71 ng/g; in data set [1] (2 hr), 78.76 ng/g. The “KX2-361 Brain Concentrations, Group C” value in data set [1] (0 hr) was “BLQ (BLQ: Below Limit of Quantitation (1 ng/mL))”; in data set [1] (0.5 hr), 116.84 ng/g; in data set [1] (1 hr), 273.32 ng/g; in data set [1] (2 hr), 336.07 ng/g; in data set [1] (5 hr), 47.85 ng/g. The “AUClast Brain/AUClast Plasma Ratio” value in data set [1] (single oral dose 10 mg/kg) amounted to 0.76. Moreover, the Median survival in the data set with GL261 glioma cells (15 mg/kg bid oral) was found to be 30.5; in the data set with GL261 glioma cells (30 mg/kg bid oral), 29. The “survival Range” value is 25-34 in the data set with GL261 glioma cells (15 mg/kg bid oral) and 23-32 with GL261 glioma cells (30 mg/kg bid oral). Further, the “survival of mice bearing intracranial GL261 gliomas” value in the data set with GL261 glioma cells (orally at 15 mg/kg/dose bid 7 hours apart) is “best results”.
What is called pIC50 is the IC50 on a negative log10 scale, so that one unit is a factor of ten. Read a low pIC50 as a high IC50. Regarding `O=C(Cc1ccc(-c2ccc(OCCN3CCOCC3)cc2)cn1)NCc1ccccc1` [KXO1], the 50% growth inhibitory concentration (GI50) is 25 nM in the data set on HT29 cell line (HT29 (Colon) cells); 23 nM in the data set with c-Src 3T3 cells; 9.4 nM and 13 nM in data set [2]; 20 nM in the data set with MDA231 (Breast). At isolated Src, the negative logarithm of the IC50 (pIC50) was 4.34. For the same compound, in data set [3], the “PDGF receptor Y572/574 autophosphorylation” value is recorded as “not inhibited”.
